Measurements: US9247737B2, “Method for disinfecting a surface” (Rohm and Haas Company, priority 2011, dated 2016)
Where “and” joins values, the source holds several entries; their conditions need not be identical. Equal entries are not always repeated.

How the values were obtained:
Type in all cases: cell-based
[1] = test system: Escherichia coli (E. coli ATCC #10536); assay: Example 2: high resolution MBC synergy assay in phosphate buffer containing 35% dipropylene glycol, 15 seconds; conditions: for ΣFBC: calculated for the Ca/Cb pair, 1.00 for a component alone; for MBC of component alone (MBCA thymol, MBCB acyclic terpene alcohol): complete kill in 15 seconds, phosphate buffer with 35% DPG, about 1×10^8 bacteria per mL
Procedure: In this Example, a wide range of combinations of chemicals was tested by conducting high resolution MBC assays of selected acyclic terpene alcohols in the presence of various concentrations of thymol. The materials were sourced in the same way as for Example 1. Synergy tests were conducted using standard microtiter plate assays with phosphate buffer containing 35% dipropylene glycol (DPG). […] The MBC plate was inoculated one column at a time with the test microorganism. An aliquot of the inoculated well was transferred at 15 seconds to a plate containing a neutralizing agent (DIE Neutralizing Broth), mixed and held for 5 minutes before being transferred to a growth plate containing trypticase soy broth (TSB). The TSB plate was incubated at 37° C. and read for the presence/absence of growth at 24 hours. […] This microorganism is representative of natural contaminants in many consumer and industrial applications. […] The tables show the specific combinations of two components: results against the microorganism tested: the end-point activity in weight % measured by the MBC for the first component alone (thymol, MBCA), for the second component alone (acyclic terpene alcohol, MBCB), for the first component in the mixture (Ca) and for the second component in the mixture (Cb); the calculated ΣFBC value; and the range of synergistic ratios for each combination tested (first component t second component or A/B) against the particular microorganism.

[2] = test system: Escherichia coli (E. coli—ATCC #10536); assay: Example 3: automated assessment of efficacy in surfactant base (2.85% sodium cocoyl glycinate + 1.85% sodium lauroamphoacetate, pH 10), 15 seconds exposure, DeltaOD read-out; conditions: for MBC: in 2.85% sodium cocoyl glycinate + 1.85% sodium lauroamphoacetate solution at pH 10, 15 seconds; for 15 second bactericidal efficacy in combination with thymol (in words): in combination with thymol at concentrations lower than their MBC in the same surfactant formulation
Procedure: In these examples, the efficacy of combinations of thymol and acyclic terpene alcohols were tested in a surfactant cleansing formulation comprising 2.85% sodium cocoyl glycinate and 1.85% sodium lauroamphoacetate. […] Solutions were prepared such that the concentrations of the surfactant components and test actives were 1.1 times the final desired concentration in order to allow for dilution with the bacterial inoculum in the test. […] Solutions of the thymol and/or acyclic terpene alcohols were prepared at a maximum of 24 hours before testing. […] Tests were conducted using standard microtiter plate assays using an automated liquid handling system. 270 μl of the surfactant test solution was pipetted into each well of the microtitre plate (Nunc F Gamma irradiated 96F untreated microtitre plates of clear polystyrene) and 30 μl of the bacterial suspension was then added. After exactly 15 seconds of bacterial exposure, a 30 μl volume of bacterial cells was withdrawn and transferred to 270 μl of D/E quench solution. […] These provide a dual check of antimicrobial activity, as the OD450 reading is specific for the yellow colour of DIE quench when bacterial growth is observed, whereas OD590 is specific for the initial purple colour of the D/E quench which is retained if no bacterial growth is observed. […] Bacterial growth is observed as an increase in OD450 and a decrease in OD590. […] Four replicate measurements in the same plate have been made for each test system. The number of replicate wells showing either bacterial growth or no growth is also readily assessed by eye by following the colour change. Thymol and terpineol were tested both alone and in combination for comparison purposes.

[3] = test system: Escherichia coli (10536 strain); assay: Example 1: 15 second contact-time bacterial kill assay (microtitre plate, D/E quench, TSA plate count); MBC and FBC analysis; conditions: lowest concentration of the single active giving zero bacterial survival after 15 seconds; upper boundary
Procedure: The efficacies of antimicrobial agents can be usefully compared by determining the Minimum Biocidal Concentration (MBC). The MBC is defined as the lowest absolute concentration of the particular active that provides complete kill (zero bacterial growth).
1 ml of this overnight E. coli culture was transferred to 50 ml of fresh TSB broth and incubated at 37° C. at 150 rpm for ca. 4 hours. This culture was separated into equal volumes and centrifuged at 4000 rpm for 15 minutes, washed with sterile saline (0.85% NaCl), centrifuged once more and re-suspended in saline to give a final concentration of 0.8 OD620 equivalent to about 10^8 cells per millilitre for this particular organism. Here, OD620 indicates the absorbance of a sample in a cuvette of 1.0 cm path length at a wavelength of 620 nm. This bacterial stock was used for assaying against antimicrobial actives (in triplicate).
The following assay describes the testing of 8 materials using 6 dilutions across half of a 96-well micro titre plate (MTP). Using this approach it is possible to assay 16 actives (without replicates) with one full dilution plate, replicating this set up in two halves of the plate columns, 1-6 and 7-12.
This MTP was labelled as the “Screening plate”.
In another MTP, labelled as the “Dilution plate”, 270 μl of D/E neutralising solution from DIFCO Composition was added to column 1. The composition of the neutralising solution was as follows: pancreatic digest of casein, 5.0 g/L; Yeast Extract, 2.5 g/L; Dextrose, 10 g/L, sodium thioglycollate, 1.0 g/L, sodium thiosulphate, 6.0 g/L; sodium bisulphite, 2.5 g/L; Polysorbate 80, 5.0 g/L; lecithin 7.0 g/L; bromocresol purple, 0.02 g/L with a pH in the range 7.6±0.2.
270 μl of tryptone diluent solution was added to all the remaining wells of the Dilution MTP (columns 2-6).
After exactly 5 minutes in the D/E neutralising solution, 30 μl volumes were transferred from column 1 to column 2 of the Dilution MTP and mixed, before transferring further 30 μl volumes from column 2 into column 3. […]

Structure (SMILES)	ΣFBC [1]	MBC of component alone (MBCA thymol, MBCB acyclic terpene alcohol) [1]	MBC [2]	15 second bactericidal efficacy in combination with thymol (in words) [2]	MBC (minimum biocidal concentration) [3]
C=CC(C)(O)CCC=C(C)C (racemic) [(+/−)-linalool, 3,7-dimethylocta-1,6-dien-3-ol]	1.00	0.5 weight %	>0.5 % w/v	complete kill	0.4 % w/v
C=C[C@@](C)(O)CCC=C(C)C [(−)-linalool, (S)-3,7-dimethylocta-1,6-dien-3-ol]	–	–	–	–	0.4 % w/v
CC1=CCC(C(C)(C)O)CC1 (stereo not drawn) [alpha-terpineol, reference compound]	–	–	–	–	0.4 % w/v
CC(C)=CCC/C(C)=C/CO [geraniol, (E)-3,7-dimethylocta-2,6-dien-1-ol]	1.00	0.3 weight %	>0.5 % w/v and 0.5 % w/v	complete kill	–
CC(C)=CCC/C(C)=C\CO [nerol, (Z)-3,7-dimethylocta-2,6-dien-1-ol]	1.00	0.5 weight %	–	–	–
Cc1ccc(C(C)C)c(O)c1 [thymol, 2-isopropyl-5-methylphenol]	1.00	0.5 weight % and 0.4 weight %	0.2 % w/v	–	–
